Where two headings read alike, the source gives them in different places.
Experiments:
[1] = test system: Mycosphaerella graminicola; anamorph: Septoria tritici; Bayer code SEPTTR; assay: Fungicidal activity: leaf blotch of wheat, one-day protectant (1DP) and three-day curative (3DC) tests on wheat plants; format: in vivo, Septoria tritici on wheat plants (variety Yuma); details: Zymoseptoria tritici, rating of % disease control vs untreated inoculated plants
Procedure: Evaluation of Fungicidal Activity: Leaf Blotch of Wheat (Mycosphaerella graminicola; anamorph: Septoria tritici; Bayer code […]) Wheat plants (variety Yuma) were grown from seed in a greenhouse in 50% mineral soil/50% soil-less Metro mix until the first leaf was fully emerged, with 7-10 seedlings per pot. These plants were inoculated with an aqueous spore suspension of Septoria tritici either prior to or after fungicide treatments. After inoculation the plants were kept in 100% relative humidity (one day in a dark dew chamber followed by two to three days in a lighted dew chamber) to permit spores to germinate and infect the leaf. The plants were then transferred to a greenhouse for disease to develop. The following table presents the activity of typical compounds of the present disclosure when evaluated in these experiments. The effectiveness of the test compounds in controlling disease was determined by assessing the severity of disease on treated plants, then converting the severity to percent control based on the level of disease on untreated, inoculated plants. In each case of Table III the rating scale is as follows: […]

[2] = 24 h, one-day protectant, read-out: SEPTTR 25 ppm 1DP
[3] = 24 h, one-day protectant, read-out: SEPTTR 100 ppm 1DP
[4] = 72 h, three-day curative, read-out: SEPTTR 25 ppm 3DC
[5] = 72 h, three-day curative, read-out: SEPTTR 100 ppm 3DC

| Compound | melting point | pest or weed control at 25 ppm [1, 2] [%] | pest or weed control at 100 ppm [1, 3] [%] | pest or weed control at 25 ppm [1, 4] [%] | pest or weed control at 100 ppm [1, 5] [%] |
| --- | --- | --- | --- | --- | --- |
| COc1ccc(C=NOc2ncc(F)c(NCc3ccc(Cl)cc3)n2)cc1 [Compound 28] | 141 to 142 °C | 0 to 25 | 26 to 50 | 0 to 25 | 0 to 25 |
| CC=NOc1ncc(F)c(NCc2ccc(Cl)cc2)n1 [Compound 29] | 116 to 117 °C | 0 to 25 | 26 to 50 | 0 to 25 | 51 to 75 |
| CC(C)C=NOc1ncc(F)c(NCc2ccc(Cl)cc2)n1 [Compound 30] | 200 to 205 °C | 0 to 25 | 26 to 50 | 0 to 25 | 26 to 50 |
| CC=NOc1ncc(F)c(NCc2ccc(OC)cc2)n1 [Compound 34] | 79 to 82 °C | 0 to 25 | 26 to 50 | 26 to 50 | 76 to 100 |
| CN(Cc1ccccc1)c1nc(ON=Cc2ccc(Cl)cc2)ncc1F [Compound 37] | 78 to 81 °C | 0 to 25 | 51 to 75 | 26 to 50 | 76 to 100 |
| COc1ccc(C=NOc2ncc(F)c(N(C)Cc3ccccc3)n2)cc1 [Compound 38] | 100 to 103 °C | 0 to 25 | 0 to 25 | 26 to 50 | 51 to 75 |
| CC(C)C=NOc1ncc(F)c(N(C)Cc2ccccc2)n1 [Compound 40] | 176 to 179 °C | 0 to 25 | 0 to 25 | 0 to 25 | 51 to 75 |
| CN(Cc1ccc(Cl)cc1)c1nc(ON=Cc2ccc(Cl)cc2)ncc1F [Compound 42] | 115 to 116 °C | 0 to 25 | 26 to 50 | 0 to 25 | 0 to 25 |
| CC(C)C=NOc1ncc(F)c(N(C)Cc2ccc(Cl)cc2)n1 [Compound 45] | 224 to 228 °C (dec.) | 0 to 25 | 0 to 25 | 26 to 50 | 0 to 25 |
| COc1ccc(CN(C)c2nc(ON=Cc3ccc(Cl)cc3)ncc2F)cc1 [Compound 47] | 79 to 83 °C | 26 to 50 | 26 to 50 | 26 to 50 | 51 to 75 |
| COc1ccc(C=NOc2ncc(F)c(N(C)Cc3ccc(OC)cc3)n2)cc1 [Compound 48] | 46 to 50 °C | 0 to 25 | 0 to 25 | 26 to 50 | 51 to 75 |
| COc1ccc(CN(C)c2nc(ON=CC(C)C)ncc2F)cc1 [Compound 50] | 110 to 112 °C | 0 to 25 | 0 to 25 | 26 to 50 | 26 to 50 |
| CN(C)c1nc(ON=Cc2ccccc2)ncc1F [Compound 51] | 75 to 76 °C | 0 to 25 | 0 to 25 | 0 to 25 | 51 to 75 |
| CN(C)c1nc(ON=Cc2ccc(Cl)cc2)ncc1F [Compound 52] | 144 to 146 °C | 0 to 25 | 0 to 25 | 0 to 25 | 26 to 50 |
| COc1ccc(C=NOc2ncc(F)c(N(C)C)n2)cc1 [Compound 53] | 106 to 107 °C | 0 to 25 | 0 to 25 | 0 to 25 | 0 to 25 |
| CC=NOc1ncc(F)c(N(C)C)n1 [Compound 54] | 122 to 124 °C | 0 to 25 | 0 to 25 | 0 to 25 | 0 to 25 |
| CC(C)C=NOc1ncc(F)c(N(C)C)n1 [Compound 55] | 90 to 92 °C | 0 to 25 | 0 to 25 | 0 to 25 | 0 to 25 |

— US8912207B2, “2-aldoximino-5-fluoropyrimidine derivatives” (Dow AgroSciences, LLP., priority 2009, dated 2014)
